Test results taken from patent US7855205B2, “Pyrimidinyl substituted fused-pyrrolyl compounds useful in treating kinase disorders” (Janssen Pharmaceutica NV, priority 2004, dated 2010).
Read-outs that look alike come from different tables or passages of the source.

Legend:
[1] = target: T1, VEGF-R2 (Rattus norvegicus, UniProt O08775); assay: VEGF-R2 Screening Assay; format: biochemical; conditions: 33P-γ-ATP incorporation, 10 μM ATP
T1 construct: polyhistidine (N)
Method: Then 1 μL of test compound stock in 100% DMSO was added to the wells resulting in a final concentration of 1% DMSO in the reaction with a 100 μL final reaction volume. The CDK1:Cyclin-B protein was then diluted in 50 mM Tris-HCl pH=8.0, 0.1% BSA at a concentration of 1 ng per μL and 30 μL (30 ng enzyme per test well) was added to each well to initiate the reaction. The reaction was incubated for one hour at 30° C. At the end of the 1 h incubation, the reaction was terminated by aspirating the mixture from the plate and washing the wells twice with PBS containing 100 mM EDTA. The histone-H1 biotinylated peptide substrate became immobilized on the Flashplate™ and the incorporation of ^33P-γ-ATP was measured by reading the plate on a scintillation counter. Inhibition of the enzymatic activity of CDK1 was measured by observing a reduced amount of ^33P-γ-ATP incorporated into the immobilized peptide. The VEGF-R kinase assay was carried out using the CDK kinase assay procedure except that the enzyme was replaced with the VEGF-R2 fusion protein containing a polyhistidine tag at the N-terminus followed by amino acids 786-1343 of the rat VEGF-R2 kinase domain (GenBank Accession #U93306).

[2] = system: HeLa cervical adenocarcinoma; assay: Inhibition of cell proliferation (14C-thymidine incorporation), HeLa; format: cell-based;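 note: HeLa cells in 96-well scintillating plates, compound for 24 h then 24 h more with 14C-thymidine, counting label built into new DNA against DMSO-only control wells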
[3] = target: T2, CDK1:Cyclin-B (Homo sapiens, UniProt P06493); assay: CDK1 Screening Assay; format: biochemical; conditions: 33P-γ-ATP incorporation, 10 μM ATP
T2 construct: purchased New England Biolabs, Beverly, Mass; 6020; host or cells: insect cells
T2 sequence (P06493 whole entry): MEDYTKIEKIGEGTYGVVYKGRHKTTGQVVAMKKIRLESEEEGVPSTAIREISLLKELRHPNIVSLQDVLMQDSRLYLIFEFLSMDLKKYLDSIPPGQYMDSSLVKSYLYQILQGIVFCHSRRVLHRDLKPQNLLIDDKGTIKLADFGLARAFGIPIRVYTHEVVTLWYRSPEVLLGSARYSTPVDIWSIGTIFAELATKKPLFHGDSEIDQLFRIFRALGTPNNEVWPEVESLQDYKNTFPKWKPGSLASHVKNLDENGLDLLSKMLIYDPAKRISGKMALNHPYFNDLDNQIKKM
T2 sequence (P14635 whole entry partner): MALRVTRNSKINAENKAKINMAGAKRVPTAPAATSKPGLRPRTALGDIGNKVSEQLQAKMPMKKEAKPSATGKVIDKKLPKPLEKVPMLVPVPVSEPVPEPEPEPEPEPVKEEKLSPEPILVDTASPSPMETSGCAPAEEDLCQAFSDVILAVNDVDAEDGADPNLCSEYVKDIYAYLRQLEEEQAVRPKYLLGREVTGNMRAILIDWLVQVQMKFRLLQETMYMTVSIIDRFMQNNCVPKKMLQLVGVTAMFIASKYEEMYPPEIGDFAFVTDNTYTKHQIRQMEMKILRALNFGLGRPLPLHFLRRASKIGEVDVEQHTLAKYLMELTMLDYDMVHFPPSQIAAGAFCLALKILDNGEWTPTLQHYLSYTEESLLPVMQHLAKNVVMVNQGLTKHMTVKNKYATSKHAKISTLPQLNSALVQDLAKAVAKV
Method: (§1) A kinase reaction mixture was prepared containing 50 mM Tris-HCl pH=8, 10 mM MgCl2, 0.1 mM […], 1 mM DTT, 10 μM ATP, 0.025 μM biotinylated histone-HI peptide substrate and […] per well ^33P-γ-ATP (2000-3000 Ci/mmol). 70 μL of the kinase reaction mixture was dispensed into the well of a streptavidin coated FlashPlate™ (Cat. # SMP103, NEN, Boston, Mass.). Then 1 μL of test compound stock in 100% DMSO was added to the wells resulting in a final concentration of 1% DMSO in the reaction with a 100 μL final reaction volume.
(§2) The CDK1:Cyclin-B protein was then diluted in 50 mM Tris-HCl pH=8.0, 0.1% BSA at a concentration of 1 ng per μL and 30 μL (30 ng enzyme per test well) was added to each well to initiate the reaction. The reaction was incubated for one hour at 30° C. At the end of the 1 h incubation, the reaction was terminated by aspirating the mixture from the plate and washing the wells twice with PBS containing 100 mM EDTA. The histone-H1 biotinylated peptide substrate became immobilized on the Flashplate™ and the incorporation of ^33P-γ-ATP was measured by reading the plate on a scintillation counter. Inhibition of the enzymatic activity of CDK1 was measured by observing a reduced amount of ^33P-γ-ATP incorporated into the immobilized peptide.
The CDK1 used was isolated from insect cells expressing both the human CDK1 catalytic subunit and its positive regulatory subunit cyclin B (New England Biolabs, Beverly, Mass., Cat. #6020).
(§3) • VEGF-R2, HER2 and (Biotin)[…]-Amide • RET kinases • CDK1 (Biotin)[…]-Amide • Aurora-A kinase Biotin-[…]-Amide

[4] = target: T3, Aurora-A (Mus musculus, UniProt P97477); assay: Aurora-A Screening Assay; format: biochemical, murine; conditions: 33P-γ-ATP incorporation, 10 μM ATP
T3 construct: made in house; host or cells: sf9 insect cells
T3 sequence (P97477 1-395): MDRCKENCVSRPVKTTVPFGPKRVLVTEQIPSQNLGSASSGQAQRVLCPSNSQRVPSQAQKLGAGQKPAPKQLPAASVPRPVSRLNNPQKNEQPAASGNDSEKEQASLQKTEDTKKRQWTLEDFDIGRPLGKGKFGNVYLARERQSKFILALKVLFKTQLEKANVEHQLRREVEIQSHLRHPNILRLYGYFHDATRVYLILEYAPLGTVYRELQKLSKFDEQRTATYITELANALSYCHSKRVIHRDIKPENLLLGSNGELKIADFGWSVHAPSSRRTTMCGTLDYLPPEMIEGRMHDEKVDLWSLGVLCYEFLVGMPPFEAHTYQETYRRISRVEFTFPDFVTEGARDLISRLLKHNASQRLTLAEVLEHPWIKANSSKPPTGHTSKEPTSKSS
Method: as §1, §2
The Aurora-A kinase assay was carried out using the CDK kinase assay procedure except that the enzyme was replaced with the full length protein encoding the murine Aurora-A (Accession# GB BC014711) expressed and purified from sf9 insect cells.
as §3

[5] = system: HCT-116 colon carcinoma; assay: Inhibition of cell proliferation (14C-thymidine incorporation), HCT-116; format: cell-based
Method: (§4) The ability of a test compound to inhibit the proliferation of cell growth was determined by measuring incorporation of ^14C-labelled thymidine into newly synthesized DNA within the cells. This method was used on cell lines derived from carcinomas originating from several tissues such as HeLa cervical adenocarcinoma (American Type Culture Collection (ATCC), Virginia, Cat. #CCL-2), A375 malignant melanoma (ATCC CRL-1619), HCT-116 colon carcinoma (CCL-247). In this way the effect of a compound on cell growth of cells with many different phenotypes can be determined. Cells were trypsinized and counted and 3000-8000 cells were added to each well of a 96-well CytoStar tissue culture treated scintillating microplate (Amersham #RPNQ0160) in complete medium in a volume of 100 μL. Cells were incubated for 24 hours in complete medium at 37° C. in an atmosphere containing 5% CO2.
(§5) Next, 1 μL of test compound in 100% DMSO was added to the wells of the plate. DMSO only was added to control wells. Cells were incubated for 24 more hours in complete medium at 37° C. in an atmosphere containing 5% CO2. Methyl ^14C-thymidine 56 mCi/mmol (NEN #NEC568 or Amersham #CFA532) was diluted in complete medium and 0.2 uCi/well was added to each well of the CytoStar plate in a volume of 20 μl. The plate was incubated for 24 hours at 37° C. plus 5% CO2 in drug plus ^14C-thymidine. The contents of the plate discarded into a ^14C radioactive waste container by inverting the plate and the plate was washed twice with 200 μL PBS.
(§6) 200 μL of PBS is added to each well. The top of the plate was sealed with a transparent plate sealer and a white plate backing sealer (Packard #6005199) was applied to the bottom of the plate. The degree of methyl ^14C-thymidine incorporation was quantified on a Packard Top Count.

[6] = system: A375 malignant melanoma; assay: Inhibition of cell proliferation (14C-thymidine incorporation), A375; format: cell-based, human
Method: as §4, §5, §6

T1 sequence (O08775 786-1343): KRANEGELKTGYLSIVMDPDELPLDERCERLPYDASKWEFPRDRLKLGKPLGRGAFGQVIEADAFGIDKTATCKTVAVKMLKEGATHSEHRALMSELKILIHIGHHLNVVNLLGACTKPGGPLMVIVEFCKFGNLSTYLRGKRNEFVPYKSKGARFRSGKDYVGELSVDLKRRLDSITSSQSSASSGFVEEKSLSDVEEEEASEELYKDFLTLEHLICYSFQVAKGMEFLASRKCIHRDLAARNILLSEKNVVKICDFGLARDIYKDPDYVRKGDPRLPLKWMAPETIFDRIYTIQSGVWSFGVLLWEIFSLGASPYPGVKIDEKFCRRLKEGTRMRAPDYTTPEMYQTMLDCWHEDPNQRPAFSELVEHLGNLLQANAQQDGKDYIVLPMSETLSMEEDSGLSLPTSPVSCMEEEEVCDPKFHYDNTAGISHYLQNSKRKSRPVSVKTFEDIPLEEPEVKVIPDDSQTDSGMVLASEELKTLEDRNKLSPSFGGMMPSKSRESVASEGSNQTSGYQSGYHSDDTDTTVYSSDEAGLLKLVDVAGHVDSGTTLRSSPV

IC50 [1] | IC50 ([2]; Homo sapiens) | IC50 [3] | IC50 [4] | IC50 ([5]; Homo sapiens, HCT-116, HCT116) | IC50 ([6]; Homo sapiens, A-375) | IC50 [2] | IC50 ([5]; HCT116) | IC50 [6] | Structure (SMILES)
10 µM | 0.21 µM | 1.35 µM |  | 0.157 µM | 0.298 µM |  |  |  | CN(C)CC(O)Cn1cc(-c2ccnc(N[C@H]3CC[C@H](O)CC3)n2)c2cccnc21 (relative stereo) [Cpd 76, trans-4-{4-[1-(3-Dimethylamino-2-hydroxy-propyl)-1H-pyrrolo[2,3-b]pyridin-3-yl]-pyrimidin-2-ylamino}-cyclohexanol]
 | 6.29 µM | 3.21 µM |  | 3.97 µM | 5.93 µM |  |  |  | OCCn1cc(-c2ccnc(NC3CCCCC3)n2)c2cccnc21 [Cpd 70, Cyclohexyl-{4-[1-(2-hydroxyethyl)-1H-pyrrolo[2,3-b]pyridin-3-yl]-pyrimidin-2-yl}-amine]
 | 9.51 µM | 1.65 µM |  | 4.46 µM | 7.15 µM |  |  |  | Cn1cc(-c2ccnc(N[C@H]3CC[C@H](O)CC3)n2)c2cccnc21 [Cpd 71, trans-4-[4-(1-Methyl-1H-pyrrolo[2,3-b]pyridin-3-yl)-pyrimidin-2-ylamino]-cyclohexanol]
 | 4.16 µM | 7.02 µM |  | 3.51 µM | 3.95 µM |  |  |  | CNCCn1cc(-c2ccnc(N[C@H]3CC[C@H](O)CC3)n2)c2cccnc21 [Cpd 73, trans-4-{4-[1-(2-Methylaminoethyl)-1H-pyrrolo[2,3-b]pyridin-3-yl]-pyrimidin-2-ylamino}-cyclohexanol]
 | 4.53 µM | 3.89 µM |  | 3.76 µM | 3.02 µM |  |  |  | CN(C)CCn1cc(-c2ccnc(N[C@H]3CC[C@H](O)CC3)n2)c2cccnc21 [Cpd 74, trans-4-{4-[1-(2-Dimethylaminoethyl)-1H-pyrrolo[2,3-b]pyridin-3-yl]-pyrimidin-2-ylamino}-cyclohexanol]
 |  | 2.02 µM | 10 µM |  |  | 1.99 µM | 1.58 µM | 2.81 µM | O=S(=O)(c1ccccc1)n1cc(-c2ccnc(N[C@H]3CC[C@H](O)CC3)n2)c2cccnc21 [Cpd 75, trans-4-[4-(1-Benzenesulfonyl-1H-pyrrolo[2,3-b]pyridin-3-yl)-pyrimidin-2-ylamino]-cyclohexanol]
10 µM | 2.58 µM | 2.31 µM |  | 3.87 µM | 4.54 µM |  |  |  | CNCCOc1ccc(Nc2nccc(-c3c[nH]c4ncccc34)n2)c(C)c1 [Cpd 80, [4-(2-Methylamino-ethoxy)-2-methyl-phenyl]-[4-(1H-pyrrolo[2,3-b]pyridin-3-yl)-pyrimidin-2-yl]-amine]
 | 13.2 µM | 1.87 µM |  | 4.54 µM | 2.81 µM |  |  |  | Cc1cc(OCCN(C)C)ccc1Nc1nccc(-c2c[nH]c3ncccc23)n1 [Cpd 81, [4-(2-Dimethylamino-ethoxy)-2-methyl-phenyl]-[4-(1H-pyrrolo[2,3-b]pyridin-3-yl)-pyrimidin-2-yl]-amine]

More lines, now with the values behind:

Structure (SMILES) | IC50 [1] | IC50 ([2]; Homo sapiens) | IC50 [3] | IC50 [4] | IC50 ([5]; Homo sapiens, HCT-116, HCT116) | IC50 ([6]; Homo sapiens, A-375) | IC50 [2] | IC50 ([5]; HCT116) | IC50 [6]
CC1CCC(Nc2nccc(-c3c[nH]c4ncccc34)n2)CC1 (mixture of isomers) [Cpd 17, (4-Methyl-cyclohexyl)-[4-(1H-pyrrolo[2,3-b]pyridin-3-yl)-pyrimidin-2-yl]-amine] | 3.81 µM | 0.0243 µM | 0.012 µM | 0.312 µM | 0.0208 µM | 0.014 µM |  |  | 
NC1CCC(Nc2nccc(-c3c[nH]c4ncccc34)n2)CC1 (mixture of isomers) [Cpd 43, (4-Aminocyclohexyl)-[4-(1H-pyrrolo[2,3-b]pyridin-3-yl)-pyrimidin-2-yl]-amine] | 2.78 µM | 0.00292 µM | 0.0066 µM | 0.262 µM | 0.00297 µM | 0.00242 µM |  |  | 
Cc1ccccc1Nc1nccc(-c2c[nH]c3ncccc23)n1 [Cpd 8, [4-(1H-Pyrrolo[2,3-b]pyridin-3-yl)-pyrimidin-2-yl]-o-tolyl-amine] | 0.57 µM |  | 0.0037 µM | 0.301 µM | 0.024 µM | 0.024 µM |  |  | 
Cc1cccc(Nc2nccc(-c3c[nH]c4ncccc34)n2)c1 [Cpd 9, [4-(1H-Pyrrolo[2,3-b]pyridin-3-yl)-pyrimidin-2-yl]-m-tolyl-amine] | 0.0967 µM |  | 0.057 µM | 0.136 µM | 0.25 µM | 0.34 µM |  |  | 
c1cnc2[nH]cc(-c3ccnc(NC4CCCCC4)n3)c2c1 [Cpd 13, Cyclohexyl-[4-(1H-pyrrolo[2,3-b]pyridin-3-yl)-pyrimidin-2-yl]-amine] | 2.08 µM | 0.031 µM | 0.014 µM | 0.263 µM | 0.032 µM | 0.033 µM |  |  | 
Clc1ccc(Nc2nccc(-c3c[nH]c4ncccc34)n2)c(Cl)c1 [Cpd 36, (2,4-Dichlorophenyl)-[4-(1H-pyrrolo[2,3-b]pyridin-3-yl)-pyrimidin-2-yl]-amine] |  | 0.467 µM | 0.0223 µM | 1 µM | 0.277 µM | 0.448 µM |  |  | 
Cc1cc(CCO)ccc1Nc1nccc(-c2c[nH]c3ncccc23)n1 [Cpd 44] | 0.493 µM | 0.011 µM |  | 0.142 µM | 0.00398 µM | 0.00845 µM |  |  | 
Cn1cc(-c2ccnc(NC3CCCCC3)n2)c2cccnc21 [Cpd 66, Cyclohexyl-[4-(1-methyl-1H-pyrrolo[2,3-b]pyridin-3-yl)pyrimidin-2-yl]-amine] |  | 52.2 µM |  |  | ≥ 10 µM | ≥ 10 µM |  |  | 
CN(C)CCn1cc(-c2ccnc(NC3CCCCC3)n2)c2cccnc21 [Cpd 69, Cyclohexyl-{4-[1-(2-dimethylaminoethyl)-1H-pyrrolo[2,3-b]pyridin-3-yl]-pyrimidin-2-yl}-amine] |  | 8.9 µM | 10.4 µM |  | 13.4 µM | 7.69 µM |  |  | 
